Reference: patent US20210113519A1, “Compositions and Methods for Modulating Permeability of Biological Barriers” (Carnegie Mellon University, priority 2018, published 2021)
Entries after “also recorded” stand apart in the source; their conditions may differ.

Columns and labels:
[1] = tested on: Caco-2 monolayers; test: Calcein permeability assay through Caco-2 monolayers; type: cell-based, human; conditions: for calcein permeability, known phenolic compounds from strawberry: 1 mg/mL; for calcein permeability, anthocyanidins: applied at 0.33 mg/ml, vs untreated control
Description: (§1) Caco-2 Cell Monolayers: Caco-2 cells were seeded in Basal Seeding Medium (BSM) on a collagen-coated, 24-Multiwell Insert […]® Plate at a concentration of 2×10^5 cells per well. The plate was incubated at 37° C. for one to two days. On the third day, the BSM was replaced with Enterocyte Differentiation Medium (EDM). The plate was then incubated one to two more days at 37° C. to allow complete formation of differentiated monolayers.
Permeability Assays: The paracellular diffusion markers were applied at 0.5 mM (calcein) or 0.1 mM (4 kDa FITC-Dextran), dissolved in EDM with the treatment extracts, to the apical side of fully-formed monolayers (TEER>200 Ω·cm^2). Fresh EDM with the markers was used as a negative control. After one hour, media in the basal chambers was sampled and examined for fluorescence at 495/515 nm. Application of calibration curves yielded an amount of mass transferred across each monolayer, which was used in the permeability equation Papp=ΔM/CaAΔt, where Papp is the apparent permeability through the monolayer, ΔM is the marker mass in the basal compartment, Ca is the apical marker concentration, A is the monolayer area, and Δt is the time between samples. Permeability measurements are expressed as the ratio of monolayer permeability at 3 hours after treatment addition to permeability before treatment addition, normalized to any change in negative control monolayers during that time.

[2] = tested on: intestinal epithelium; test: Insulin delivery study: blood glucose in mice after oral enhancer and intestinal insulin injection; type: in vivo
Description: For insulin delivery studies, mice were orally gavaged with PBS (for control) or strawberry treatments (600 mg/kg STRB PPh or 40 mg/kg pelargonidin). One hour later, their initial blood sugar was measured and the animals were placed under anesthesia. Their intestines were surgically exposed, and insulin was injected at the predetermined dose (1 unit per kg body weight unless otherwise specified) into the duodenum of the small intestine, avoiding digestion in the stomach. The mice were closed and secured with tissue adhesive, then kept under anesthesia as their blood sugar levels were monitored each hour for five hours. For comparison to the current standard of insulin delivery, subcutaneous injections were given at 1 U/kg to additional mice, into the scruff on their necks. To determine areas above the curve for each mouse, trapezoidal integration was used to sum the area between known points on the blood glucose curve and the starting blood glucose value for the individual animal.

[3] = tested on: intestinal barrier; test: Oral FITC-DX4 (4 kDa dextran) absorption in mice after oral enhancer; type: in vivo; conditions: pelargonidin 40 mg/kg oral, then FITC-DX4 600 mg/kg oral
Description: Examination of strawberry extract efficacy in vivo: For dextran efficacy studies, fasted mice were orally gavaged with 600 mg/kg STRB PPh solutions or 40 mg/kg pelargonidin solutions, then gavaged three hours later with 600 mg/kg FITC-DX4. Three hours after the dextran gavage, blood was collected and centrifuged. The serum was removed and examined for FITC concentration by reading for fluorescence on the plate reader and comparing to a unique calibration curve for each experiment. For larger macromolecule studies, 40 kDa dextran (FITC-DX40) was substituted at the same 600 mg/kg concentration.

[4] = tested on: Caco-2 intestinal epithelial cell monolayers; test: TEER (transepithelial electrical resistance) assay on Caco-2 monolayers; type: cell-based, human
Description: as §1
TEERAssay: All TEER (transepithelial electrical resistance) values were measured using a voltohmmeter. Between each TEER measurement, the plate was incubated at 37° C. for a minimum of fifteen minutes to allow the cells to rest. To ensure that all the wells contained fully formed Caco-2 monolayers (>200 Ω·cm^2), initial TEER values were measured prior to treatment exposure. After adding the extracts to each well, TEER values were measured at defined intervals for a total of three hours. The treatments were then aspirated, and the cells rinsed with PBS before refilling the wells with fresh EDM. The plates were then left in the incubator at 37° C. for 24 hours, when recovery TEER values were measured.

[5] = pelargonidin between 0.33 and 1.00 mg/mL

Oc1ccc(-c2[o+]c3cc(O)cc(O)c3cc2O)cc1 [pelargonidin]
calcein permeability, known phenolic compounds from strawberry [1]: effective permeation enhancer; also recorded: significantly increased the permeability of calcein
calcein permeability, anthocyanidins [1]: increase the permeability of calcein; also recorded: statistically significant increases
improvement of calcein permeability, dose response [1, 5]: dose dependence was also evident
duration of hypoglycemia vs 1 U/kg subcutaneous insulin ([2]; pelargonidin 40 mg/kg oral + 1 U/kg intestinal insulin): sustained hypoglycemia several hours longer
total pharmacodynamic effect (area above the curve) relative to subcutaneous insulin ([2]; pelargonidin 40 mg/kg oral + 1 U/kg intestinal insulin vs 1 U/kg subcutaneous): approximately 1.3 times
relative bioactivity value ([2]; pelargonidin 40 mg/kg oral + 1 U/kg intestinal insulin vs 1 U/kg subcutaneous insulin, AAC): 130%
blood glucose response to intestinal insulin ([2]; pelargonidin 40 mg/kg oral, one hour later 1 U/kg insulin intestinal injection, vs saline gavage): substantial reduction in blood glucose; also recorded: sustained reductions in blood glucose levels
FITC-DX4 absorption across the intestinal barrier vs saline (PBS) gavage [3]: doubled
permeabilization and recovery of barrier function ([4]; 0.33 mg/ml): substantial yet reversible permeabilization
permeabilization and recovery of barrier function ([4]; 0.67 mg/ml): substantial yet reversible permeabilization
permeabilization and recovery of barrier function ([4]; 1 mg/ml): opened the tight junctions beyond their ability to recover barrier function
recovery of barrier function within 24 hours (TEER) ([4]; pelargonidin 0.33, 0.67 and 1.00 mg/mL): only the two lower concentrations recovered their barrier function
TEER response (opening of tight junctions) [4, 5]: dose-dependent opening of the tight junctions

insulin: bovine pancreas insulin [reference compound]
blood glucose response to subcutaneous insulin ([2]; 1 U/kg subcutaneous insulin dose): pronounced but brief response

OC[C@H]1O[C@@H](Oc2cc3c(O)cc(O)cc3[o+]c2-c2ccc(O)cc2)[C@H](O)[C@@H](O)[C@@H]1O [callistephin, reference compound]
calcein permeability, known phenolic compounds from strawberry [1]: not an effective permeation enhancer

COc1cc(-c2[o+]c3cc(O)cc(O)c3cc2O)cc(O)c1O [petunidin]
calcein permeability, anthocyanidins [1]: increase the permeability of calcein; also recorded: statistically significant increases

COc1cc(-c2[o+]c3cc(O)cc(O)c3cc2O)cc(OC)c1O.[Cl-] [malvidin]
calcein permeability, anthocyanidins [1]: increase the permeability of calcein; also recorded: statistically significant increases
